Assay results taken from patent US20180243298A1, “TRPV3 MODULATORS” (AbbVie Inc., priority 2015, published 2018).

Target: T1, human TRPV3 (Homo sapiens, UniProt Q8NET8)
T1 construct: expressed in transfected cells; host or cells: HEK293
T1 sequence (Q8NET8 1-790): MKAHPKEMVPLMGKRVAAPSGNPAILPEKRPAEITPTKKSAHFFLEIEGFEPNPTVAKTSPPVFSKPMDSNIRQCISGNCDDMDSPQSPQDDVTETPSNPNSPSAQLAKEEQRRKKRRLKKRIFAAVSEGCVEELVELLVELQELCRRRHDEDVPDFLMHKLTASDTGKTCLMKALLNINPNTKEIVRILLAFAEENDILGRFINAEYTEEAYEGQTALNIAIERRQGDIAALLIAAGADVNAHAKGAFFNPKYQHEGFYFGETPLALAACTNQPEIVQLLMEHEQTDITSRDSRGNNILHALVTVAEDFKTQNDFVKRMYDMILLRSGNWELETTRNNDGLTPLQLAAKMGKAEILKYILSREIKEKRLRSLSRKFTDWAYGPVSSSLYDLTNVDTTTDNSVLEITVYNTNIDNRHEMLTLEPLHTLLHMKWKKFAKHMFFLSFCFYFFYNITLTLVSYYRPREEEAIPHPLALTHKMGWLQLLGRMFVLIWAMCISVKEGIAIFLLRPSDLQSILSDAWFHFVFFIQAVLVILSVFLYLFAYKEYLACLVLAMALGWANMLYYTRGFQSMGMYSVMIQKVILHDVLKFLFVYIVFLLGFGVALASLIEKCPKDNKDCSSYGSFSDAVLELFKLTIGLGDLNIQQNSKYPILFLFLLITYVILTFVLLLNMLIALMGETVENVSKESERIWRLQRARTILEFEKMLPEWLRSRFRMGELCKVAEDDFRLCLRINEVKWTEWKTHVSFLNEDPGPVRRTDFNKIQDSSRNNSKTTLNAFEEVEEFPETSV
Assay: Calcium flux assay (FLIPR TETRA), recombinant HEK293 cells expressing TRPV3, 2-APB response
Type: cell-based
Settings: 2-APB at its EC80
Protocol: (i) In Vitro Methods-Calcium Flux Assays:
Experiments were conducted using the FLIPR TETRA®. On the day prior to the experiment, recombinant HEK293 cells that stably express human and mouse TRPV3 were removed from tissue culture flasks and plated in growth medium at 20,000 cells/well into black-walled clear-bottom 384-well BIOCOAT™ poly-D-lysine assay plates (BD Biosciences, Bedford, Mass.) using a MULTIDROP® dispenser (ThermoScientific, Waltham, Mass.). On the day of the experiment, growth medium was removed, and the no-wash FLIPR® Calcium-4 dye (λEX=470-495 nm, λEM=515-575 nm; Molecular Devices, Sunnyvale, Calif.) was added to each well using the MULTIDROP® dispenser. Cells were incubated for 90-120 minutes in the dark. The compounds were dissolved in DMSO to prepare a 10 mM stock solution. The intensity of the fluorescence was captured and digitally transferred to an interfaced PC. The peak increase in fluorescence over baseline, measured in relative fluorescence units, was calculated and expressed as the percentage of the maximal 2-APB (2-aminoethoxyldiphenyl borate) response (in the absence of compound). The concentration of 2-APB corresponds to its EC80.

Molecule	IC50 [nM]
4,6-dimethoxy-N-[5-(2-methoxypyrimidin-5-yl)-4-(trifluoromethyl)-1,3-thiazol-2-yl]pyrimidine-5-carboxamide [Example 183]	100 to 500
COc1ncnc(OC)c1C(=O)Nc1nc(-c2ccc(C(F)(F)F)cn2)c(C(C)O)s1 (single isomer, unassigned) [Example 83, N-{5-[(1R*)-1-hydroxyethyl]-4-[5-(trifluoromethyl)pyridin-2-yl]-1,3-thiazol-2-yl}-4,6-dimethoxypyrimidine-5-carboxamide]	100 to 500
COc1ncnc(OC)c1C(=O)Nc1nc(-c2ccc(C(F)(F)F)cn2)c(C(C)O)s1 (single isomer, unassigned) [Example 84, N-{5-[(1S*)-1-hydroxyethyl]-4-[5-(trifluoromethyl)pyridin-2-yl]-1,3-thiazol-2-yl}-4,6-dimethoxypyrimidine-5-carboxamide]	100 to 500
COc1ncnc(OC)c1C(=O)Nc1nc(C(F)(F)F)c(C2CCCOC2)s1 (single isomer, unassigned) [Example 149, 4,6-dimethoxy-N-{5-[(3S*)-tetrahydro-2H-pyran-3-yl]-4-(trifluoromethyl)-1,3-thiazol-2-yl}pyrimidine-5-carboxamide]	> 1000
COc1ncnc(OC)c1C(=O)Nc1nc(C(F)(F)F)c([C@@H]2CCCOC2)s1 (single isomer, unassigned) [Example 150]	100 to 500
COc1ncnc(OC)c1C(=O)Nc1nc(C(F)(F)F)c(C)s1 [Example 1, 4,6-dimethoxy-N-[5-methyl-4-(trifluoromethyl)-1,3-thiazol-2-yl]pyrimidine-5-carboxamide]	50 to 100
COc1ncnc(OC)c1C(=O)Nc1nc(C(F)(F)F)c(I)s1 [Example 2, N-[5-iodo-4-(trifluoromethyl)-1,3-thiazol-2-yl]-4,6-dimethoxypyrimidine-5-carboxamide]	< 50
COc1ncnc(OC)c1C(=O)Nc1nc(C(F)(F)F)cs1 [Example 3, 4,6-dimethoxy-N-[4-(trifluoromethyl)-1,3-thiazol-2-yl]pyrimidine-5-carboxamide]	100 to 500
COc1ncnc(OC)c1C(=O)Nc1nc(C(F)(F)F)c(-c2ccc(Cl)cc2)s1 [Example 4, N-[5-(4-chlorophenyl)-4-(trifluoromethyl)-1,3-thiazol-2-yl]-4,6-dimethoxypyrimidine-5-carboxamide]	50 to 100
CCOc1ncnc(OCC)c1C(=O)Nc1nc(C(F)(F)F)c(-c2ccc(Cl)cc2)s1 [Example 5, N-[5-(4-chlorophenyl)-4-(trifluoromethyl)-1,3-thiazol-2-yl]-4,6-diethoxypyrimidine-5-carboxamide]	500 to 1000
CCc1sc(NC(=O)c2c(OC)ncnc2OC)nc1C(F)(F)F [Example 6, N-[5-ethyl-4-(trifluoromethyl)-1,3-thiazol-2-yl]-4,6-dimethoxypyrimidine-5-carboxamide]	< 50
CCOc1ncnc(OCC)c1C(=O)Nc1nc(C(F)(F)F)c(C#N)s1 [Example 7, N-[5-cyano-4-(trifluoromethyl)-1,3-thiazol-2-yl]-4,6-diethoxypyrimidine-5-carboxamide]	500 to 1000
COc1ncnc(OC)c1C(=O)Nc1nc(C(F)(F)F)c(-c2ccc(F)nc2)s1 [Example 8, N-[5-(6-fluoropyridin-3-yl)-4-(trifluoromethyl)-1,3-thiazol-2-yl]-4,6-dimethoxypyrimidine-5-carboxamide]	50 to 100
COc1ncnc(OC)c1C(=O)Nc1nc(C)c(C)s1 [Example 9, N-(4,5-dimethyl-1,3-thiazol-2-yl)-4,6-dimethoxypyrimidine-5-carboxamide]	> 1000
COc1ncnc(OC)c1C(=O)Nc1nc(C(F)(F)F)c(C#C[Si](C)(C)C)s1 [Example 10, 4,6-dimethoxy-N-{4-(trifluoromethyl)-5-[(trimethylsilyl)ethynyl]-1,3-thiazol-2-yl}pyrimidine-5-carboxamide]	< 50
C#Cc1sc(NC(=O)c2c(OC)ncnc2OC)nc1C(F)(F)F [Example 11, N-[5-ethynyl-4-(trifluoromethyl)-1,3-thiazol-2-yl]-4,6-dimethoxypyrimidine-5-carboxamide]	< 50
COc1ncnc(OC)c1C(=O)Nc1nc(C(F)(F)F)c(C#CCO)s1 [Example 12, N-[5-(3-hydroxyprop-1-yn-1-yl)-4-(trifluoromethyl)-1,3-thiazol-2-yl]-4,6-dimethoxypyrimidine-5-carboxamide]	100 to 500
COc1ncnc(OC)c1C(=O)Nc1nc(C(F)(F)F)c(CCCO)s1 [Example 13, N-[5-(3-hydroxypropyl)-4-(trifluoromethyl)-1,3-thiazol-2-yl]-4,6-dimethoxypyrimidine-5-carboxamide]	> 1000
COc1ncnc(OC)c1C(=O)Nc1nc(C(F)(F)F)c(C#CC2CC2)s1 [Example 14, N-[5-(cyclopropylethynyl)-4-(trifluoromethyl)-1,3-thiazol-2-yl]-4,6-dimethoxypyrimidine-5-carboxamide]	< 50
COCC#Cc1sc(NC(=O)c2c(OC)ncnc2OC)nc1C(F)(F)F [Example 15, 4,6-dimethoxy-N-[5-(3-methoxyprop-1-yn-1-yl)-4-(trifluoromethyl)-1,3-thiazol-2-yl]pyrimidine-5-carboxamide]	< 50
COCCCc1sc(NC(=O)c2c(OC)ncnc2OC)nc1C(F)(F)F [Example 16, 4,6-dimethoxy-N-[5-(3-methoxypropyl)-4-(trifluoromethyl)-1,3-thiazol-2-yl]pyrimidine-5-carboxamide]	< 50
COC/C=C\c1sc(NC(=O)c2c(OC)ncnc2OC)nc1C(F)(F)F [Example 17, 4,6-dimethoxy-N-{5-[(1Z)-3-methoxyprop-1-en-1-yl]-4-(trifluoromethyl)-1,3-thiazol-2-yl}pyrimidine-5-carboxamide]	< 50
COC/C=C/c1sc(NC(=O)c2c(OC)ncnc2OC)nc1C(F)(F)F [Example 18, 4,6-dimethoxy-N-{5-[(1E)-3-methoxyprop-1-en-1-yl]-4-(trifluoromethyl)-1,3-thiazol-2-yl}pyrimidine-5-carboxamide]	< 50
COc1ncnc(OC)c1C(=O)Nc1nc(C(F)(F)F)c(C#CC(C)(C)O)s1 [Example 19, N-[5-(3-hydroxy-3-methylbut-1-yn-1-yl)-4-(trifluoromethyl)-1,3-thiazol-2-yl]-4,6-dimethoxypyrimidine-5-carboxamide]	50 to 100
COc1ncnc(OC)c1C(=O)Nc1nc(C(F)(F)F)c(CCC(C)(C)O)s1 [Example 20, N-[5-(3-hydroxy-3-methylbutyl)-4-(trifluoromethyl)-1,3-thiazol-2-yl]-4,6-dimethoxypyrimidine-5-carboxamide]	500 to 1000
CCOC(=O)c1sc(NC(=O)c2c(OC)ncnc2OC)nc1C(F)(F)F [Example 21, ethyl 2-{[(4,6-dimethoxypyrimidin-5-yl)carbonyl]amino}-4-(trifluoromethyl)-1,3-thiazole-5-carboxylate]	< 50
COc1ncnc(OC)c1C(=O)Nc1nc(C(F)(F)F)c(CCO)s1 [Example 22, N-[5-(2-hydroxyethyl)-4-(trifluoromethyl)-1,3-thiazol-2-yl]-4,6-dimethoxypyrimidine-5-carboxamide]	> 1000
COc1ncnc(OC)c1C(=O)Nc1nc(C(F)(F)F)c(-c2ccc(N3CCOCC3)nc2)s1 [Example 23, 4,6-dimethoxy-N-{5-[6-(morpholin-4-yl)pyridin-3-yl]-4-(trifluoromethyl)-1,3-thiazol-2-yl}pyrimidine-5-carboxamide]	100 to 500
